One experiment concerns GCN5. Conditions: cited from earlier work.
Experiment [1] relates to H3K27ac levels in HEK293T and MCF7 cells. Description: Cellular H3K27ac western blot. It counts as cell-based. Conditions: 10 and 30 μM compound. Here is the method: Cells were cultured in DMEM supplemented with 10% fetal bovine serum (Winsent), penicillin (100 U mL^−1), and streptomycin (100 µg mL^−1). Compounds dissolved in DMSO or matching DMSO-only controls were added to cells for indicated times. Compound effects in cells were determined as described[67] and are outlined below.
For western blot analyses, cells were lysed in lysis buffer (20 mM Tris–HCl, pH 8, 150 mM NaCl, 1 mM EDTA, 10 mM MgCl2, 0.5% Triton X-100 (v/v), 12.5 U mL^−1 benzonase (Sigma), complete EDTA-free protease inhibitor cocktail (Roche)). After 3 min incubation at RT, SDS was added to final 1% concentration (w/v). Total cell lysates were resolved in 4–12% Bis-Tris protein gels (Invitrogen) with MOPS buffer (Invitrogen) and transferred for 1.5 h (80 V) onto PVDF membrane (Millipore) in tris-glycine transfer buffer containing 20% methanol and 0.05% SDS. Blots were blocked for 1 h in blocking buffer (5% milk in 0.1% Tween 20/PBS) and incubated with respective primary antibodies: H3K27ac (1:1000, CST #8173), H3 (1:1000, Abcam #10799), p300 (1:2000, Bethyl #A300-358A), CBP (1:1000, Bethyl #A300-362A), actin (1:3000, Abcam #3280), α-tubulin (1:1000, 12G10 DHSB), and α-tubulin-K40ac (1:2000, Abcam #179484) in blocking buffer overnight at 4 °C. After five washes with 0.1% Tween 20/PBS, the blots were incubated with goat anti-rabbit IgG (IRDye 800-conjugated, LiCor #926-32211) and donkey anti-mouse IgG (IRDye 680-conjugated, LiCor #926-68072) antibodies (1:5000) in Odyssey Blocking Buffer (LiCor) for 1 h at RT and washed with 0.1% Tween 20/PBS. The signal was read on an Odyssey scanner (LiCor) at 800 and 700 nm. Representative uncropped images with molecular weight markers are provided (Supplementary Figs. 9, 12, 13).
A general note: Immunoblotting shows a protein as a band on a membrane.

Another experiment has as its target T1, PCAF (Homo sapiens, UniProt Q92831).
T1 construct: Reaction Biology Corporation (assays run by this contract lab)
The following applies: cited from earlier work.

A further experiment deals with five tested HATs. Description: HAT selectivity panel with DTT (Reaction Biology). Conditions: 10 μM compound; DTT in reaction buffer. It counts as biochemical. The procedure: Selectivity profiles vs. HATs, HDACs, SIRTs, HMTs, proteases, kinases, and phosphatases were performed by Reaction Biology Corporation (Malvern, PA; Fig. 3 and Supplementary Fig. 3). Percent activity was normalized to DMSO-only controls. Reference control compounds were included in each assay.
Relevant reaction procedures for each target class are briefly summarized (see reactionbiology.com for additional details). HATs: reaction buffer 50 mM Tris–HCl, pH 8.0, 50 mM NaCl, 0.1 mM EDTA, ± 1 mM DTT, 1 mM PMSF, 1% DMSO; substrate [^3H]-acetyl-CoA; reaction time 1 h; end-point measurement. HDACs: reaction buffer 50 mM Tris–HCl, pH 8.0, 137 mM NaCl, 2.7 mM KCl, 1 mM MgCl2, 1 mg mL^−1 BSA, 1% DMSO; fluorogenic substrate p53 residues 379–382 (RHKK(Ac)-AMC) (HDAC1/2/3/6/10), fluorogenic substrate p53 residues 379–382 (RHK(Ac)K(Ac)AMC) (HDAC8); fluorogenic substrate trifluoroacetyl lysine (HDAC4/5/7/9/11); pre-incubation included; reaction time 1–2 h; trichostatin A or TMP269 quencher; fluorescent readout λexcite = 360 nm, λemission = 460 nm; end-point measurement. SIRTs: reaction buffer 50 mM Tris–HCl, pH 8.0, 137 mM NaCl, 2.7 mM KCl, 1 mM MgCl2, 1 mg mL^−1 BSA, 1% DMSO; fluorogenic substrate p53 residues 379–382 (RHKK(Ac)-AMC) (SIRT1/2/3); fluorogenic substrate Ac-Lys(Succ)-AMC (SIRT5); substrate: 500 µM NAD^+; reaction time 2 h; nicotinamide quencher; fluorescent readout λexcite = 360 nm, λemission = 460 nm; end-point measurement (1.5 h development). HMTs: reaction buffer 50 mM Tris–HCl, pH 8.0, 0.01% Brij35, 1 mM EDTA, 1 mM DTT, 1 mM PMSF, 1% DMSO (EZH2); reaction buffer 50 mM Tris–HCl, pH 7.5, 5 mM EDTA, 0.01% Brij35, 5 mM DTT, 0.1 mM PMSF, 5% glycerol, 1% DMSO; 50 mM Tris–HCl, pH 8.5, 5 mM MgCl2, 50 mM NaCl, 0.01 Brij35, 1 mM DTT, 1% DMSO (G9a); methyl donor 1 μM S-Adenosyl-L-[methyl-^3H]-methionine; substrate 5 μM histone proteins or 0.05 mg mL^−1 nucleosomes; pre-incubation time 10–15 min; reaction time 0.5–1 h; end-point measurement. Caspases: reaction buffer 50 mM HEPES, pH 7.4, 1 M citrate, 100 mM NaCl, 0.01% CHAPS, 0.1 mM EDTA, 10 mM DTT; fluorogenic peptide substrate; pre-incubation time 10 min; reaction time 2 h; time-course measurement. Kinases: reaction buffer 20 mM HEPES, pH 7.5, 10 mM MgCl2, 1 mM EGTA, 0.02% Brij35, 0.02 mg mL^−1 BSA, 0.1 mM Na3VO4, 2 mM DTT, 1% DMSO; substrate [^33P]-ATP; reaction time 2 h; end-point measurement.

The next experiment relates to CBP. Conditions: cited from earlier work; for IC50: original report, 22 (Supplementary References).
A further experiment relates to Tip60. Conditions: cited from earlier work; for IC50: original report, 24 (Supplementary References).
The mark [2] stands for this setting: @ 10 µM, ref 5 (Supplementary References).
Where [3] appears, read: @ 100 µM, 20 (Supplementary References).
Setting [4] is: original report, 22 (Supplementary References).
The mark [5] stands for this setting: @ 5 µM, ref 16 (Supplementary References).
Where [6] appears, read: original report, 27 (Supplementary References).

Read-outs that look alike come from different tables or passages of the source.

T1 sequence (Q92831 whole entry, species assumed): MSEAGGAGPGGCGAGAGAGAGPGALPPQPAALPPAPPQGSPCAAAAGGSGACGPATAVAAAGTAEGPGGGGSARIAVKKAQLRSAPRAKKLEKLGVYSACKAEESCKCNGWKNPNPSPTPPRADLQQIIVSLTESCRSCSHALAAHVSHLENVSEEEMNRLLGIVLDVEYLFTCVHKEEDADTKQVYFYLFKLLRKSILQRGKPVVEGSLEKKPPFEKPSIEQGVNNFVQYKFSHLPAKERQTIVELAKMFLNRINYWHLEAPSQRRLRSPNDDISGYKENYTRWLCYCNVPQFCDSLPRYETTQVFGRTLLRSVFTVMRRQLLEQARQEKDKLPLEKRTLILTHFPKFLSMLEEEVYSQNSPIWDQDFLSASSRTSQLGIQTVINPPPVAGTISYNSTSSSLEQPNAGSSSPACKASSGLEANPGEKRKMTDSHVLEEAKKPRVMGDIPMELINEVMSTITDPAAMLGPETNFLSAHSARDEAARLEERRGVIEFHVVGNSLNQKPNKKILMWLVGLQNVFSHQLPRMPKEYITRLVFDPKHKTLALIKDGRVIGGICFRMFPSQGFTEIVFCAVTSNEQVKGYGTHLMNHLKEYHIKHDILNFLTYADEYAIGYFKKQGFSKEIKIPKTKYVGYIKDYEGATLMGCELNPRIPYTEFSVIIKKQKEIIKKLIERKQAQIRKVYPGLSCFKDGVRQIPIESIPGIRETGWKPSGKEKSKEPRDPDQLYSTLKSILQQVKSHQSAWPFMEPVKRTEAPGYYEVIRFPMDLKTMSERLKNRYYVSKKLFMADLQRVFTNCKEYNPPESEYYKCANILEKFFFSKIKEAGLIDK

Turning to `CC1=NN(c2ccc(C(=O)O)cc2)C(=O)/C1=C/c1ccc(-c2cc(C)c(C)cc2[N+](=O)[O-])o1` [Compound 1, C646], in the experiment with GCN5 (setting [2]), the “% inhibition, GCN5” value is less than 10%. Moreover, the “cellular H3K27ac levels” value in experiment [1] is given as “decreased”. Also, the “% inhibition, PCAF” value on PCAF (setting [2]) is on record as less than 10%. The “activity vs. the five tested HATs” value in the experiment on five tested HATs is listed as “potent inhibition of at least one HAT”.
For the compound `O=c1c2cccnc2sn1Cc1ccc(C(F)(F)F)cc1` [Compound 3, PU141], the 50% inhibitory concentration (IC50) on PCAF (H4 peptide substrate, ref 7 (Supplementary References)) is 35.5 µM. In addition, the “activity vs. the five tested HATs” value with five tested HATs was “minimal activity”.
Consider `Cc1cc(O)cc(C)c1C=C1C(=O)N(Cc2ccccc2)C(=O)N(Cc2ccccc2)C1=O` [Compound 4, EML425], for which the “cellular H3K27ac levels” value in experiment [1] is recorded as “did not perturb”. Further, the “activity vs. the five tested HATs” value in the experiment on five tested HATs was “potent inhibition of at least one HAT”. Further, the IC50 in the experiment with CBP was 1.1 µM.
Take `COc1ccc(S(=O)(=O)ON=C2C=C(C)C(=O)C(C)=C2)cc1` [Compound 5, L002]: the half-maximal inhibitory concentration (IC50) in the experiment with GCN5 (HotSpot assay, ref 9 (Supplementary References)) was 33.9 µM. Besides, the “cellular H3K27ac levels” value in experiment [1] is reported as “decreased”. In addition, the “% inhibition, Tip60” value in the experiment on Tip60 (setting [3]) was 2%. In the experiment on CBP (@ 100 µM, ref 9 (Supplementary References)), the “% inhibition, CBP” value was 32%.
With `C=C1C(=O)O[C@H](CCC)[C@H]1C(=O)O` [Compound 6, MB-3], the figures for the 50% inhibitory concentration (IC50) in the experiment with GCN5 (setting [4]) and in the experiment on CBP were 100 µM and 500 µM, respectively.
Consider `Clc1ccc(-c2csc(NN=C3CCCC3)n2)cc1` [Compound 7, CPTH2], for which the IC50 in the experiment with GCN5 (setting [4]) is approximately 500 µM.
`CCCCCCCCCCCC1=C(O)C(=O)C=C(O)C1=O` [Compound 9, Embelin]: the “% inhibition, Tip60” value with Tip60 (@ 25 µM, ref 13 (Supplementary References)) is listed as 25%.
As for `O=C(O[C@@H]1Cc2c(O)cc(O)cc2O[C@@H]1c1cc(O)c(O)c(O)c1)c1cc(O)c(O)c(O)c1` [Compound 10, (-)-Epigallocatechin gallate], the IC50 in the experiment on Tip60 is 70 µM; in the experiment with CBP it was 50 µM.
Take `COc1cc(/C=C/C(=O)CC(=O)/C=C/c2ccc(O)c(OC)c2)ccc1O` [Compound 11, Curcumin]: the “% inhibition, PCAF” value at PCAF (@ 100 µM, ref 15 (Supplementary References)) was less than 10%.
With `O=C1/C(=C/c2ccc(O)c(Br)c2)CCC/C1=C\c1ccc(O)c(Br)c1` [Compound 12, HAT inhibitor II], in the experiment on GCN5 (setting [5]), the “% inhibition, GCN5” value was 30%. For the same compound, on PCAF (setting [5]), the “% inhibition, PCAF” value is given as less than 1%. Besides, the “activity vs. the five tested HATs” value with five tested HATs is “potent inhibition of at least one HAT”.
With `CCCCCCCCCCCCCCCc1cccc(O)c1C(=O)O` [Compound 14, Anacardic acid], the “cellular H3K27ac levels” value in experiment [1] is listed as “did not perturb”.
Regarding `CCCCCCCc1ccc(CCc2cccc(O)c2C(=O)O)cc1` [Compound 15, MG 149], on PCAF (@ 200 µM, ref 19 (Supplementary References)), the “% inhibition, PCAF” value is reported as 3%. Besides, the IC50 with Tip60 was 74 µM.
Regarding `Cc1cc2c(C(C)C)c(O)c(O)c(C=O)c2c(O)c1-c1c(C)cc2c(C(C)C)c(O)c(O)c(C=O)c2c1O` [Compound 16, Gossypol], the figures for the IC50 at PCAF (setting [6]) and with CBP were approximately 50 µM and approximately 25 µM, respectively. Moreover, the “% inhibition, Tip60” value in the experiment on Tip60 (setting [3]) is on record as less than 10%.
Regarding `COc1cc(/C=C/c2cc(/C=C/c3ccc(O)c(OC)c3)n(-c3ccc(C(=O)[O-])cc3)n2)ccc1O.[Na+]` [Compound 17, CTK7A], the “% inhibition, GCN5” value in the experiment on GCN5 (@ 40 µM, ref 21 (Supplementary References)) was 40%.
As to `COc1ccc(/C(Cl)=C(/C=O)c2ccc(OC)cc2)cc1` [Compound 18, Windorphen], the results for the IC50 with GCN5 (setting [4]), on PCAF (setting [6]) and in the experiment on CBP were more than 100 µM, more than 100 µM and 51.3 µM, respectively. The “activity vs. the five tested HATs” value in the experiment with five tested HATs is “minimal activity”.
On to `Cl.Cl.O=C(O)Cn1nnc(-c2ccc(CN(CCCCOc3ccc(CN4CCCC4)cc3)CCc3ccccc3)cc2)n1` [Compound 20, TH1834], for which the IC50 in the experiment with Tip60 was approximately 500 µM.
Turning to `CCCC1(c2ccccc2)NC(=O)N(CC(=O)N(C)Cc2c(F)cccc2Cl)C1=O` (centres unmarked) [Compound 21, N-[(2-chloro-6-fluorophenyl)methyl]-2-(2,5-dioxo-4-phenyl-4-propylimidazolidin-1-yl)-N-methylacetamide], the “% inhibition, GCN5” value with GCN5 (@ 100 µM, ref 25 (Supplementary References)) is reported as less than 25%.
Consider Garcinol [Compound 13], for which, in the experiment with five tested HATs, the “activity vs. the five tested HATs” value was “potent inhibition of at least one HAT”.
In the case of Plumbagin [Compound 8], the “% inhibition, PCAF” value at PCAF (@ 50 µM, 23 (Supplementary References)) is ~ 50%.

A word on the IC50: it is the midpoint of a concentration-inhibition curve.

The values are drawn from publication PMC5688144, “Assay interference and off-target liabilities of reported histone acetyltransferase inhibitors” (Nature Communications, 2017).
